Source: patent publication US20090298804A1, “Novel Compounds and Methods for Their Production” (priority 2006, published 2009)

Key:
CNXF 498NL = assay: Monolayer proliferation assay (modified propidium iodide assay), CNXF 498NL; assay type: cell-based, human; details: CNXF 498NL (CNS), 4 days continuous exposure
Description: (§1) In vitro evaluation of compounds for anticancer activity in a panel of human tumour cell lines in a monolayer proliferation assay was carried out at the Oncotest Testing Facility, Institute for Experimental Oncology, Oncotest GmbH, Freiburg.
(§2) The Oncotest cell lines are established from human tumor xenografts as described by Roth et al., (1999). The origin of the donor xenografts was described by Fiebig et al., (1999). Other cell lines were either obtained from the NCI (DU145, MCF-7) or purchased from DSMZ, Braunschweig, Germany.
(§3) All cell lines, unless otherwise specified, were grown at 37° C. in a humidified atmosphere (95% air, 5% CO2) in a ‘ready-mix’ medium containing RPMI 1640 medium, 10% fetal calf serum, and 0.1 mg/mL gentamicin (PAA, Cölbe, Germany).
(§4) A modified propidium iodide assay was used to assess the effects of the test compound(s) on the growth of human tumour cell lines (Dengler et al., (1995)).
(§5) Briefly, cells were harvested from exponential phase cultures by trypsinization, counted and plated in 96 well flat-bottomed microtitre plates at a cell density dependent on the cell line (5-10.000 viable cells/well). […] After thawing the plates, fluorescence was measured using the Cytofluor 4000 microplate reader (excitation 530 nm, emission 620 nm), giving a direct relationship to the total number of viable cells.
(§6) Growth inhibition was expressed as treated/control×100 (% T/C). […]

CXF HT29 = assay: Monolayer proliferation assay (modified propidium iodide assay), CXF HT29; assay type: cell-based, human; details: CXF HT29 (colon), 4 days continuous exposure
Description: as §1, §2, §3, §4, §5, §6

LXF 1121L = assay: Monolayer proliferation assay (modified propidium iodide assay), LXF 1121L; assay type: cell-based, human; details: LXF 1121L (lung, large cell ca), 4 days continuous exposure
Description: as §1, §2, §3, §4, §5, §6

MCF-7 = assay: Monolayer proliferation assay (modified propidium iodide assay), MCF-7; assay type: cell-based, human; details: MCF-7 (breast), 4 days continuous exposure
Description: as §1, §2, §3, §4, §5, §6

MEXF 394NL = assay: Monolayer proliferation assay (modified propidium iodide assay), MEXF 394NL; assay type: cell-based, human; details: MEXF 394NL (melanoma), 4 days continuous exposure
Description: as §1, §2, §3, §4, §5, §6

DU145 = assay: Monolayer proliferation assay (modified propidium iodide assay), DU145; assay type: cell-based, human; details: DU145 (prostate, PTEN positive), 4 days continuous exposure
Description: as §1, §2, §3, §4, §5, §6

Hsp90 = Hsp90 (Homo sapiens, UniProt P07900); details: cited from earlier work
Reverse transcriptase = details: cited from earlier work
[1] = biological target: terminal deoxynucleotidyl transferase (Homo sapiens, UniProt P04053); details: cited from earlier work
Sequence of terminal deoxynucleotidyl transferase (P04053 whole entry, species assumed): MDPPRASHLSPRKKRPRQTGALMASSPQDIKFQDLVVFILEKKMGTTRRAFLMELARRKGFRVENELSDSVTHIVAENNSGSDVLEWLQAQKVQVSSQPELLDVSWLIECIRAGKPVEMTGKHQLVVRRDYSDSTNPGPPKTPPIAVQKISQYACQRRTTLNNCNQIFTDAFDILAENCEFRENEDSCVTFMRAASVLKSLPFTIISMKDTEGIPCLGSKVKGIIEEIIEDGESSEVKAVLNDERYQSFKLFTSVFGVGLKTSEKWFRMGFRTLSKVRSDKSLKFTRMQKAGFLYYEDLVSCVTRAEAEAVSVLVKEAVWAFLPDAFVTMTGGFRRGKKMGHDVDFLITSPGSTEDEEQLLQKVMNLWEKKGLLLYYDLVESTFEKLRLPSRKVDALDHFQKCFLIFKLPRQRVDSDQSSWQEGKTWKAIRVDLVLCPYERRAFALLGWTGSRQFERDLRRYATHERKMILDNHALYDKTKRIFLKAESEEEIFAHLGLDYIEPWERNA

## 15-desmethoxy macbecin [compound 15]
CNXF 498NL; 1 μg/mL
  Test/Control (%) at drug concentration: 44.3%
CNXF 498NL; 10 μg/mL
  Test/Control (%) at drug concentration: 12.7%
CXF HT29; 1 μg/mL
  Test/Control (%) at drug concentration: 54.7%
CXF HT29; 10 μg/mL
  Test/Control (%) at drug concentration: 13%
LXF 1121L; 1 μg/mL
  Test/Control (%) at drug concentration: 47.7%
LXF 1121L; 10 μg/mL
  Test/Control (%) at drug concentration: 14.7%
MCF-7; 1 μg/mL
  Test/Control (%) at drug concentration: 53.3%
MCF-7; 10 μg/mL
  Test/Control (%) at drug concentration: 13%
MEXF 394NL; 1 μg/mL
  Test/Control (%) at drug concentration: 24.3%
MEXF 394NL; 10 μg/mL
  Test/Control (%) at drug concentration: 4.7%
DU145; 1 μg/mL
  Test/Control (%) at drug concentration: 30.3%
DU145; 10 μg/mL
  Test/Control (%) at drug concentration: 6.3%

## CO[C@H]1C[C@H](C)Cc2cc(O)cc(c2)NC(=O)/C=C/CC[C@H](OC)[C@@H](OC(N)=O)/C(C)=C/[C@H](C)[C@H]1O [KOSN1559]
Hsp90; relative to 17-AAG
  binding affinity to Hsp90, greater than 17-AAG: 8 fold
Hsp90; relative to geldanamycin
  binding affinity to Hsp90, greater than geldanamycin: 4 fold

## CO[C@H]1[C@@H](OC)C[C@H](C)[C@@H](OC)C2=CC(=O)C=C(NC(=O)/C(C)=C/C=C\[C@H](C)[C@@H](OC(N)=O)/C(C)=C/[C@@H]1C)C2=O [Macbecin, macbecin]
Reverse transcriptase
  Reverse transcriptase activity inhibition: not inhibited
[1]
  terminal deoxynucleotidyl transferase activity inhibition: not inhibited
